According to patent US6428817B1, “Companion animal therapeutic treat” (priority 2001, dated 2002):

What was measured:
[1] = tested on: bovine nasal cartilage explants; test: Proteoglycan degradation in bovine nasal cartilage explants, basal and TNF alpha stimulated; assay for sulfated glycosaminoglycans; type: cell-based; settings: EGCg 22 μM, 5 days culture, with or without recombinant human tumor necrosis factor alpha 3 nM
Experimental: See, Haqqi, et al., Proc. Natl. Acad. Sci., USA, 96:4524-29 (1999). […] Id. In an experiment, purified EGCg, from Sigma Chemical Supply, St. Louis, Mo., was placed with bovine nasal cartilage explants at a concentration of22 μM. This mixture was cultured for 5 days in the presence or absence of the pro-inflammatory cytokine, recombinant human tumor necrosis factor alpha at 3 nM. The inhibition of both the basal and stimulated protcoglycan degradation by EGCg was measured using a calorimetric assay for sulfated glycosaminoglycans. See, Farndale, et al., Biochem. Biophys. Acta, 4:883 (1986).

[2] = tested on: cartilage degradation; settings: mammals; cited from earlier work

For epigallocatechin-3-gallate [EGCg], the “inhibition of basal and stimulated proteoglycan degradation (cartilage breakdown)” value [1] is listed as “potent inhibitor of cartilage breakdown” and the “inhibition of cartilage degradation” value [2] is listed as “inhibitor of cartilage degradation”.
